# Patent publication US9738634B2, “Heterocyclic amide compound and herbicide” (SYNGENTA PARTICIPATIONS AG, priority 2013, dated 2017)
# How the values were obtained:
# Assay type in all cases: in vivo
# barnyard grass [1] = experiment: Test Example 1: weedkilling efficacy, preemergent weed treatment in the submerged state; A: barnyard grass
# Text: (§1) Weedkilling efficacy test on preemergent weed treatment in the submerged state
# (§2) Alluvial soil was introduced into 1/10,000 Are Wagner pots, and 4 cm depth submerged conditions were created by addition of water and mixing. Seeds of barnyard grass, bulrush and oval-leafed pondweed were mixed and sown into the aforesaid cups, then 2.5 leaf stage rice seedlings were transplanted. On the sowing day, emulsions of compounds of the present invention prepared according to compounding example 2 were diluted with water to give the specified dosages and applied onto the water surface. The plants were grown after placing the cups in a greenhouse at 25 to 30° C. 3 weeks after the pesticide treatment the effect on each type of plant was investigated on the basis of the following assessment criteria.
# (§3) A: barnyard grass, B: bulrush, C: oval-leafed pondweed, D: crabgrass, E: green foxtail, F: barnyard grass, G: wild oat, H: black-grass, I: Italian ryegrass, J: common wind-grass, K: Indian mallow, L: redroot pigweed, M: fig-leafed goosefoot, N: chickweed, O: catchweed, p: birds-eye speedwell, a: transplanted rice, b: directly sown rice, c: corn, d: soybean, e: wheat, f: beet, g: rapeseed
# (§4) Further, pesticide dosage (g/ha) indicates the concentration regulated such that treatment was with only the stated number of grams (g), when calculated per hectare (ha).
# bulrush [2] = experiment: Test Example 1: weedkilling efficacy, preemergent weed treatment in the submerged state; B: bulrush
# Text: as §1, §2, §3, §4
# oval-leafed pondweed [3] = experiment: Test Example 1: weedkilling efficacy, preemergent weed treatment in the submerged state; C: oval-leafed pondweed
# Text: as §1, §2, §3, §4
# transplanted rice = experiment: Test Example 1: preemergent weed treatment in the submerged state, effect on crop; a: transplanted rice
# Text: as §1, §2, §3, §4
# barnyard grass [4] = experiment: Test Example 2: weedkilling efficacy, growth period weed treatment in the submerged state; A: barnyard grass
# Description: (§5) Weedkilling efficacy test on growth period weed treatment in the submerged state
# as §2, with “and the plants were grown by placing in a greenhouse at 25 to 30° C. When the barnyard grass, bulrush and oval-leafed pondweed had reached the 1-2” for “then 2.5”, “stage,” for “stage rice seedlings were transplanted. On the sowing day,”, “surface.” for “surface. The plants were grown after placing the cups in a greenhouse at 25 to 30° C.”, “the” for “the following”, “criteria of test example 1.” for “criteria.”
# as §3, §4
# bulrush [5] = experiment: Test Example 2: weedkilling efficacy, growth period weed treatment in the submerged state; B: bulrush
# Description: as §5
# as §2, with “and the plants were grown by placing in a greenhouse at 25 to 30° C. When the barnyard grass, bulrush and oval-leafed pondweed had reached the 1-2” for “then 2.5”, “stage,” for “stage rice seedlings were transplanted. On the sowing day,”, “surface.” for “surface. The plants were grown after placing the cups in a greenhouse at 25 to 30° C.”, “the” for “the following”, “criteria of test example 1.” for “criteria.”
# as §3, §4
# oval-leafed pondweed [6] = experiment: Test Example 2: weedkilling efficacy, growth period weed treatment in the submerged state; C: oval-leafed pondweed
# Description: as §5
# as §2, with “and the plants were grown by placing in a greenhouse at 25 to 30° C. When the barnyard grass, bulrush and oval-leafed pondweed had reached the 1-2” for “then 2.5”, “stage,” for “stage rice seedlings were transplanted. On the sowing day,”, “surface.” for “surface. The plants were grown after placing the cups in a greenhouse at 25 to 30° C.”, “the” for “the following”, “criteria of test example 1.” for “criteria.”
# as §3, §4
Structure (SMILES),"A: barnyard grass, weed kill grade (barnyard grass [1]; treatment dosage 252 g/ha)","B: bulrush, weed kill grade (bulrush [2]; treatment dosage 252 g/ha)","C: oval-leafed pondweed, weed kill grade (oval-leafed pondweed [3]; treatment dosage 252 g/ha)","a: transplanted rice, effect on crop grade (transplanted rice; treatment dosage 252 g/ha)",A (barnyard grass) weedkilling efficacy grade (barnyard grass [4]; treatment dosage 252 g/ha),B (bulrush) weedkilling efficacy grade (bulrush [5]; treatment dosage 252 g/ha),C (oval-leafed pondweed) weedkilling efficacy grade (oval-leafed pondweed [6]; treatment dosage 252 g/ha),"A: barnyard grass, weed kill grade (barnyard grass [1]; treatment dosage 320 g/ha)","B: bulrush, weed kill grade (bulrush [2]; treatment dosage 320 g/ha)","C: oval-leafed pondweed, weed kill grade (oval-leafed pondweed [3]; treatment dosage 320 g/ha)","a: transplanted rice, effect on crop grade (transplanted rice; treatment dosage 320 g/ha)",A (barnyard grass) weedkilling efficacy grade (barnyard grass [4]; treatment dosage 320 g/ha),B (bulrush) weedkilling efficacy grade (bulrush [5]; treatment dosage 320 g/ha),C (oval-leafed pondweed) weedkilling efficacy grade (oval-leafed pondweed [6]; treatment dosage 320 g/ha),also measured
CC(C)(C(=O)Nc1cccc(C2CC2)n1)N1COCN(c2ccccc2)C1=O [A-2-46],"5 (weed kill ratio 90% or more, (practically complete withering))","4 (weed kill ratio 70% or more, less than 90%)","3 (weed kill ratio 40% or more, less than 70%)","1 (weed kill ratio 5% or more, less than 20%)","4 (weed kill ratio 70% or more, less than 90%)","2 (weed kill ratio 20% or more, less than 40%)",0 (weed kill ratio 5% or less (practically no effect)),,,,,,,,
CC(C)(C(=O)Nc1cc(C(F)(F)F)ccn1)N1COCN(c2ccc(Cl)c(Cl)c2)C1=O [A-6-03],,,,,,,,"3 (weed kill ratio 40% or more, less than 70%)","5 (weed kill ratio 90% or more, (practically complete withering))",0 (weed kill ratio 5% or less (practically no effect)),0 (weed kill ratio 5% or less (practically no effect)),0 (weed kill ratio 5% or less (practically no effect)),"2 (weed kill ratio 20% or more, less than 40%)",0 (weed kill ratio 5% or less (practically no effect)),
CC(C)(C(=O)Nc1ccnc(Cl)c1)N1COCN(c2ccccc2)C1=O [A-4-02],"5 (weed kill ratio 90% or more, (practically complete withering))","5 (weed kill ratio 90% or more, (practically complete withering))","5 (weed kill ratio 90% or more, (practically complete withering))","1 (weed kill ratio 5% or more, less than 20%)","2 (weed kill ratio 20% or more, less than 40%)","5 (weed kill ratio 90% or more, (practically complete withering))","4 (weed kill ratio 70% or more, less than 90%)",,,,,,,,
Cn1ccc(NC(=O)C(C)(C)N2COCN(c3ccccc3)C2=O)n1 [A-1-03],,,,,,,,0 (weed kill ratio 5% or less (practically no effect)),"5 (weed kill ratio 90% or more, (practically complete withering))","2 (weed kill ratio 20% or more, less than 40%)",0 (weed kill ratio 5% or less (practically no effect)),0 (weed kill ratio 5% or less (practically no effect)),"2 (weed kill ratio 20% or more, less than 40%)",0 (weed kill ratio 5% or less (practically no effect)),
CC(C)(C(=O)Nc1cc(Br)cnc1F)N1COCN(c2ccccc2)C1=O [A-3-04],"5 (weed kill ratio 90% or more, (practically complete withering))","5 (weed kill ratio 90% or more, (practically complete withering))","5 (weed kill ratio 90% or more, (practically complete withering))","3 (weed kill ratio 40% or more, less than 70%)","5 (weed kill ratio 90% or more, (practically complete withering))","5 (weed kill ratio 90% or more, (practically complete withering))","3 (weed kill ratio 40% or more, less than 70%)",,,,,,,,
Cc1ccc(N2COCN(C(C)(C)C(=O)Nc3cc(C(F)(F)F)ccn3)C2=O)cc1Cl [A-6-04],,,,,,,,"4 (weed kill ratio 70% or more, less than 90%)","4 (weed kill ratio 70% or more, less than 90%)","2 (weed kill ratio 20% or more, less than 40%)",0 (weed kill ratio 5% or less (practically no effect)),"1 (weed kill ratio 5% or more, less than 20%)","2 (weed kill ratio 20% or more, less than 40%)",0 (weed kill ratio 5% or less (practically no effect)),
CC(C)(C(=O)Nc1cc(OC(F)F)ccn1)N1COCN(c2ccccc2)C1=O [A-2-53],,,,,,,,"5 (weed kill ratio 90% or more, (practically complete withering))","5 (weed kill ratio 90% or more, (practically complete withering))","5 (weed kill ratio 90% or more, (practically complete withering))","1 (weed kill ratio 5% or more, less than 20%)","5 (weed kill ratio 90% or more, (practically complete withering))","5 (weed kill ratio 90% or more, (practically complete withering))","5 (weed kill ratio 90% or more, (practically complete withering))",
Cc1cc(C)nc(NC(=O)C(C)(C)N2COCN(c3ccccc3)C2=O)c1 [A-2-56],"5 (weed kill ratio 90% or more, (practically complete withering))","5 (weed kill ratio 90% or more, (practically complete withering))","5 (weed kill ratio 90% or more, (practically complete withering))",0 (weed kill ratio 5% or less (practically no effect)),"4 (weed kill ratio 70% or more, less than 90%)","5 (weed kill ratio 90% or more, (practically complete withering))","3 (weed kill ratio 40% or more, less than 70%)",,,,,,,,
CC(C)(C(=O)Nc1cc(C#N)ccn1)N1COCN(c2ccccc2)C1=O [A-2-48],"5 (weed kill ratio 90% or more, (practically complete withering))","5 (weed kill ratio 90% or more, (practically complete withering))","5 (weed kill ratio 90% or more, (practically complete withering))",0 (weed kill ratio 5% or less (practically no effect)),"4 (weed kill ratio 70% or more, less than 90%)","5 (weed kill ratio 90% or more, (practically complete withering))","5 (weed kill ratio 90% or more, (practically complete withering))",,,,,,,,
CC(C)(C(=O)Nc1ncc([N+](=O)[O-])s1)N1COCN(c2ccccc2)C1=O [A-1-09],,,,,,,,"5 (weed kill ratio 90% or more, (practically complete withering))","5 (weed kill ratio 90% or more, (practically complete withering))","4 (weed kill ratio 70% or more, less than 90%)",0 (weed kill ratio 5% or less (practically no effect)),"4 (weed kill ratio 70% or more, less than 90%)","5 (weed kill ratio 90% or more, (practically complete withering))","5 (weed kill ratio 90% or more, (practically complete withering))",
CC1=C(c2ccccc2)C(=O)N(C(C)(C)C(=O)Nc2cc(Oc3ccccc3)cc(Cl)n2)CO1 [B-2-48],,,,,,,,,,,,,,,"A (barnyard grass) weedkilling efficacy grade (barnyard grass [1]; treatment dosage 266 g/ha): 5 (weed kill ratio 90% or more, (practically complete withering)); B (bulrush) weedkilling efficacy grade (bulrush [2]; treatment dosage 266 g/ha): 5 (weed kill ratio 90% or more, (practically complete withering)); C (oval-leafed pondweed) weedkilling efficacy grade (oval-leafed pondweed [3]; treatment dosage 266 g/ha): 4 (weed kill ratio 70% or more, less than 90%); a (transplanted rice) effect on crop grade (transplanted rice; treatment dosage 266 g/ha): 0 (weed kill ratio 5% or less (practically no effect)); A (barnyard grass) weedkilling efficacy grade (barnyard grass [4]; treatment dosage 266 g/ha): 0 (weed kill ratio 5% or less (practically no effect)); B (bulrush) weedkilling efficacy grade (bulrush [5]; treatment dosage 266 g/ha): 2 (weed kill ratio 20% or more, less than 40%); C (oval-leafed pondweed) weedkilling efficacy grade (oval-leafed pondweed [6]; treatment dosage 266 g/ha): 0 (weed kill ratio 5% or less (practically no effect))"
